Where two headings read alike, the source gives them in different places.
Tests used:
[1] = biological target: T1, AEA-DA lipid probe targets in Neuro2a cells (Mus musculus, UniProt P18572)
T1 sequence (P18572 22-389): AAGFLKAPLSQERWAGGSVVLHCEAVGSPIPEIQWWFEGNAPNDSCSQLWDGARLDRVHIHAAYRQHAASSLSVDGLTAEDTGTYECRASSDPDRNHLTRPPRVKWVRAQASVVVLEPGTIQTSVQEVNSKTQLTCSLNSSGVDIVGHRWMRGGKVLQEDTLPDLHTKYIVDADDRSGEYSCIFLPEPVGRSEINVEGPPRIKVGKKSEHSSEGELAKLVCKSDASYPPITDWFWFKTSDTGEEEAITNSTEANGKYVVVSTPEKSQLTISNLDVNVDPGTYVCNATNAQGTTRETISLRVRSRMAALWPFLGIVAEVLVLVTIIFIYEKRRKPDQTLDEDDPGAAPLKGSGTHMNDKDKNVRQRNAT

[2] = biological target: AEA-DA lipid probe targets in Neuro2a cells (Mus musculus, UniProt Q91V04)
[3] = biological target: T2, AEA-DA lipid probe targets in Neuro2a cells (Mus musculus, UniProt P51174)
T2 sequence (P51174 31-430): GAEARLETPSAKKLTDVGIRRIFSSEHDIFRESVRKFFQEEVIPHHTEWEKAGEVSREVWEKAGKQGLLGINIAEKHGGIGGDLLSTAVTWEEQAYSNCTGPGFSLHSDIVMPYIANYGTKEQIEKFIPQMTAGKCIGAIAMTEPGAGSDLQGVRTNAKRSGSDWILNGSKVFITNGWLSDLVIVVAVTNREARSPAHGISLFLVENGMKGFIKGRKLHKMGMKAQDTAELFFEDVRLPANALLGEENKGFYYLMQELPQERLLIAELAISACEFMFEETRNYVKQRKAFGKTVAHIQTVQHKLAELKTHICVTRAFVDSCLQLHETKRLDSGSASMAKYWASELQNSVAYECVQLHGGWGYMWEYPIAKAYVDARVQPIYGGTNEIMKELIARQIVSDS

[4] = biological target: T3, AEA-DA lipid probe targets in Neuro2a cells (Mus musculus, UniProt Q5U680)
T3 sequence (Q5U680 1-274): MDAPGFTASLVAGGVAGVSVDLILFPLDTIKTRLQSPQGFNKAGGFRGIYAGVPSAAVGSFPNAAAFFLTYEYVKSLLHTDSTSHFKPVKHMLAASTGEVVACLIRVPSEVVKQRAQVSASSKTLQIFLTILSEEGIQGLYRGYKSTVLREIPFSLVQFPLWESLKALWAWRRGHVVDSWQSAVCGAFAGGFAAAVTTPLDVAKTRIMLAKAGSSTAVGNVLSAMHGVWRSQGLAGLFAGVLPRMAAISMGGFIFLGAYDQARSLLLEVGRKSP

[5] = biological target: AEA-DA lipid probe targets in Neuro2a cells (Mus musculus, UniProt P62821)
[6] = biological target: T4, AEA-DA lipid probe targets in Neuro2a cells (Mus musculus, UniProt Q8BP40)
T4 sequence (Q8BP40 26-418): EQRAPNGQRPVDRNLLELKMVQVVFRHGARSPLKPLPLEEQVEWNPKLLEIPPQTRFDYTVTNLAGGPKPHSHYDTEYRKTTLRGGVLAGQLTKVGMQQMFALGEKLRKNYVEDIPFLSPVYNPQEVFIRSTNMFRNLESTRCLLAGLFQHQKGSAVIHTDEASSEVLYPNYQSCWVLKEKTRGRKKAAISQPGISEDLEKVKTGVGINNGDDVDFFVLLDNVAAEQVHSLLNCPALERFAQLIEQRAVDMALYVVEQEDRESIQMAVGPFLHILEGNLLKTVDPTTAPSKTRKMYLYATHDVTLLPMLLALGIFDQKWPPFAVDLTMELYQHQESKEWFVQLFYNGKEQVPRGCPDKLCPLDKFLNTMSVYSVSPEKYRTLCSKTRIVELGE

[7] = biological target: T5, AEA-DA lipid probe targets in Neuro2a cells (Mus musculus, UniProt Q791V5)
T5 sequence (Q791V5 1-303): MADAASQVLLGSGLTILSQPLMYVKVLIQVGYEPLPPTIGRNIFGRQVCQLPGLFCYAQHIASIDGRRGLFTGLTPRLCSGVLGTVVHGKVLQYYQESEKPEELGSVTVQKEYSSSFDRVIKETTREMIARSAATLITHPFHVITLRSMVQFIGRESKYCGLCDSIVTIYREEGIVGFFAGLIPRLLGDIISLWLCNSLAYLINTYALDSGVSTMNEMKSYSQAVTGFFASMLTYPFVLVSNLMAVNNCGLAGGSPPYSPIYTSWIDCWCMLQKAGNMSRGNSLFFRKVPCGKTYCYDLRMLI

[8] = biological target: AEA-DA lipid probe targets in Neuro2a cells (Mus musculus, UniProt Q60932); conditions: Neuro2a cells, AEA-DA probe
[9] = biological target: AEA-DA lipid probe targets in Neuro2a cells (Mus musculus, UniProt P45377)
[10] = biological target: T6, AEA-DA lipid probe targets in Neuro2a cells (Mus musculus, UniProt Q8BTX9)
T6 sequence (Q8BTX9 1-330): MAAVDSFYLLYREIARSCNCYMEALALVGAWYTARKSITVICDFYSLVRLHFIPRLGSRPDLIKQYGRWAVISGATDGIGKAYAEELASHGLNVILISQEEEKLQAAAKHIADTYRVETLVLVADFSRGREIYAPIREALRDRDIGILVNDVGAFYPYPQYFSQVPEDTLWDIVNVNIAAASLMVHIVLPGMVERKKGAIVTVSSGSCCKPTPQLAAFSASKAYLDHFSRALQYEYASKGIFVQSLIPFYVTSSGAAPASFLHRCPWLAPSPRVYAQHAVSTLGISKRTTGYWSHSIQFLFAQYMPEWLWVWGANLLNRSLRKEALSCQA

Sequence of AEA-DA lipid probe targets in Neuro2a cells (Mus musculus, UniProt P45377) (P45377 whole entry): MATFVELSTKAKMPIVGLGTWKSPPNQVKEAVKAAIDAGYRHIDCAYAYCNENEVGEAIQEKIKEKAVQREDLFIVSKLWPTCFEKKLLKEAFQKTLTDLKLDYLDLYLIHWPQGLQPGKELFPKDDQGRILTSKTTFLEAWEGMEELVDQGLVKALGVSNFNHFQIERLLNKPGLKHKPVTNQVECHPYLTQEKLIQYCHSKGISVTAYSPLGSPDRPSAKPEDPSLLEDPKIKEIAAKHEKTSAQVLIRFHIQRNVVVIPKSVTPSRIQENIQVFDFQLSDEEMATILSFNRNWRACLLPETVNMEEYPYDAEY
Sequence of AEA-DA lipid probe targets in Neuro2a cells (Mus musculus, UniProt Q60932) (Q60932 whole entry): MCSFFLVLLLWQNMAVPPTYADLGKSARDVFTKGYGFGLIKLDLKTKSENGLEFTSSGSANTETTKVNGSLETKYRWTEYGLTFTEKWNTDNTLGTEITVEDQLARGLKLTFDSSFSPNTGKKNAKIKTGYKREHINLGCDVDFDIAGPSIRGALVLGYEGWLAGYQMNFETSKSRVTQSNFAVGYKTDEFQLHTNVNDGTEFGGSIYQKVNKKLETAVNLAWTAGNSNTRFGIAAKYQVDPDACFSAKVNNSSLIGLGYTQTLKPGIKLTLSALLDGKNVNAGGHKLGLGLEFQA
Sequence of AEA-DA lipid probe targets in Neuro2a cells (Mus musculus, UniProt P62821) (P62821 whole entry): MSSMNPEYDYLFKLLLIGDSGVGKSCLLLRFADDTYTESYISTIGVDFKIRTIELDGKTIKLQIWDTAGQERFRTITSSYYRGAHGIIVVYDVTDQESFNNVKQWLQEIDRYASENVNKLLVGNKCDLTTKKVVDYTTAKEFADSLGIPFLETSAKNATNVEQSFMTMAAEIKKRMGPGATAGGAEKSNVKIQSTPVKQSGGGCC
Sequence of AEA-DA lipid probe targets in Neuro2a cells (Mus musculus, UniProt Q91V04) (Q91V04 whole entry): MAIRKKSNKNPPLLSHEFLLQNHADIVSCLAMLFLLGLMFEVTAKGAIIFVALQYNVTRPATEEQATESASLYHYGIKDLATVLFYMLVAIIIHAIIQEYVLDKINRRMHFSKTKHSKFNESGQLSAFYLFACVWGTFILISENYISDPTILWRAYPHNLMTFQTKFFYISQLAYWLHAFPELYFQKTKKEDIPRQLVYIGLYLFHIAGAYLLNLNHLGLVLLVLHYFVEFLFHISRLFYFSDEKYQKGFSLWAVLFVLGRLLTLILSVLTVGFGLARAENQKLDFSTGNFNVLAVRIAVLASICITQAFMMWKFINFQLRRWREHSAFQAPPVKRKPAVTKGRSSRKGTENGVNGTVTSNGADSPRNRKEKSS

Structure (SMILES): CCCCC/C=C\C/C=C\C/C=C\C/C=C\CCCC(=O)NCCO [AEA, anandamide, reference compound]
- SILAC ratio Bsg ([1]; competitor 200 μM): 1.3
- SILAC ratio, Tram1 ([2]; competitor 200 μM): 2.9
- SILAC ratio, Acadl ([3]; competitor 200 μM): 1.1
- SILAC ratio, Slc25a26 ([4]; competitor 200 μM): 1.0
- SILAC ratio Rab1A ([5]; competitor 200 μM): 1.2
- SILAC ratio, Acp6 ([6]; competitor 200 μM): 2.5
- SILAC ratio Mtch2 ([7]; competitor 200 μM): 1.5
- SILAC ratio, VDAC1 (P21796) ([8]; competitor 200 μM): 1.1
- SILAC ratio, Akr1b8 ([9]; competitor 200 μM): 7.7
- SILAC ratio, Hsdl1 ([10]; competitor 200 μM): 2.5

Structure (SMILES): O=C(/C=C/c1cccnc1)NCCCCC1CCN(C(=O)c2ccccc2)CC1 [FK-866, reference compound]
- SILAC ratio Bsg ([1]; competitor 25 μM): 1.0
- SILAC ratio, Tram1 ([2]; competitor 25 μM): 1.2
- SILAC ratio, Acadl ([3]; competitor 25 μM): 12.4
- SILAC ratio, Slc25a26 ([4]; competitor 25 μM): 0.8
- SILAC ratio Rab1A ([5]; competitor 25 μM): 1.1
- SILAC ratio, Acp6 ([6]; competitor 25 μM): 1.2
- SILAC ratio Mtch2 ([7]; competitor 25 μM): 1.1
- SILAC ratio, VDAC1 (P21796) ([8]; competitor 25 μM): 1.0
- SILAC ratio, Akr1b8 ([9]; competitor 25 μM): 1.7
- SILAC ratio, Hsdl1 ([10]; competitor 25 μM): 1.0

Structure (SMILES): CN1CCN(C(=O)c2c(-c3ccccc3)c3cc([N+](=O)[O-])ccc3n2C)CC1 [KML110, (1-Methyl-5-nitro-3-phenyl-1H-indol-2-yl)(4-methylpiperazin-1-yl)methanone]
- SILAC ratio Bsg ([1]; competitor 25 μM): 1.3
- SILAC ratio, Tram1 ([2]; competitor 25 μM): 1.7
- SILAC ratio, Acadl ([3]; competitor 25 μM): 1.8
- SILAC ratio, Slc25a26 ([4]; competitor 25 μM): 0.7
- SILAC ratio Rab1A ([5]; competitor 25 μM): 1.3
- SILAC ratio, Acp6 ([6]; competitor 25 μM): 1.6
- SILAC ratio Mtch2 ([7]; competitor 25 μM): 1.3
- SILAC ratio, Akr1b8 ([9]; competitor 25 μM): 3.1
- SILAC ratio, Hsdl1 ([10]; competitor 25 μM): 1.4

Structure (SMILES): CN1CCN(C(=O)c2[nH]c3ccc([N+](=O)[O-])cc3c2-c2ccccc2)CC1 [MJN228, (4-Methylpiperazin-1-yl)(5-nitro-3-phenyl-1H-indol-2-yl)methanone]
- SILAC ratio Bsg ([1]; competitor 10 μM): 1.4
- SILAC ratio Bsg ([1]; competitor 25 μM): 1.6
- SILAC ratio Bsg ([1]; competitor 50 μM): 1.2
- SILAC ratio Bsg ([1]; competitor 100 μM): 1.6
- SILAC ratio, Tram1 ([2]; competitor 10 μM): 1.3
- SILAC ratio, Tram1 ([2]; competitor 25 μM): 1.8
- SILAC ratio, Tram1 ([2]; competitor 50 μM): 1.9
- SILAC ratio, Tram1 ([2]; competitor 100 μM): 5.4
- SILAC ratio, Acadl ([3]; competitor 10 μM): 1.4
- SILAC ratio, Acadl ([3]; competitor 25 μM): 1.8
- SILAC ratio, Acadl ([3]; competitor 50 μM): 2.0
- SILAC ratio, Acadl ([3]; competitor 100 μM): 2.4
- SILAC ratio, Slc25a26 ([4]; competitor 10 μM): 0.9
- SILAC ratio, Slc25a26 ([4]; competitor 25 μM): 0.7
- SILAC ratio, Slc25a26 ([4]; competitor 50 μM): 0.3
- SILAC ratio, Slc25a26 ([4]; competitor 100 μM): 0.4
- SILAC ratio Rab1A ([5]; competitor 10 μM): 1.1
- SILAC ratio Rab1A ([5]; competitor 25 μM): 1.3
- SILAC ratio Rab1A ([5]; competitor 50 μM): 1.3
- SILAC ratio Rab1A ([5]; competitor 100 μM): 1.3
- SILAC ratio, Acp6 ([6]; competitor 10 μM): 1.5
- SILAC ratio, Acp6 ([6]; competitor 25 μM): 1.5
- SILAC ratio, Acp6 ([6]; competitor 50 μM): 1.8
- SILAC ratio, Acp6 ([6]; competitor 100 μM): 2.3
- SILAC ratio Mtch2 ([7]; competitor 10 μM): 1.2
- SILAC ratio Mtch2 ([7]; competitor 25 μM): 1.3
- SILAC ratio Mtch2 ([7]; competitor 50 μM): 1.1
- SILAC ratio Mtch2 ([7]; competitor 100 μM): 1.4
- SILAC ratio, VDAC1 (P21796) ([8]; competitor 25 μM): 1.1
- SILAC ratio, Akr1b8 ([9]; competitor 25 μM): 1.9
- SILAC ratio, Akr1b8 ([9]; competitor 50 μM): 2.1
- SILAC ratio, Akr1b8 ([9]; competitor 100 μM): 2.7
- SILAC ratio, Hsdl1 ([10]; competitor 10 μM): 1.1
- SILAC ratio, Hsdl1 ([10]; competitor 25 μM): 1.2
- SILAC ratio, Hsdl1 ([10]; competitor 50 μM): 1.0
- SILAC ratio, Hsdl1 ([10]; competitor 100 μM): 1.5

Structure (SMILES): C=CCN(C)CCCCCCOc1ccc(C(=O)c2ccc(Br)cc2)c(F)c1 [Ro 48-8071, reference compound]
- SILAC ratio Bsg ([1]; competitor 25 μM): 1.1
- SILAC ratio, Tram1 ([2]; competitor 25 μM): 1.8
- SILAC ratio, Acadl ([3]; competitor 25 μM): 1.3
- SILAC ratio, Slc25a26 ([4]; competitor 25 μM): 0.7
- SILAC ratio Rab1A ([5]; competitor 25 μM): 1.0
- SILAC ratio, Acp6 ([6]; competitor 25 μM): 0.9
- SILAC ratio Mtch2 ([7]; competitor 25 μM): 0.9
- SILAC ratio, VDAC1 (P21796) ([8]; competitor 25 μM): 1.0
- SILAC ratio, Akr1b8 ([9]; competitor 25 μM): 1.4
- SILAC ratio, Hsdl1 ([10]; competitor 25 μM): 0.9

Source: patent US10168342B2, “Lipid probes and uses thereof” (THE SCRIPPS RESEARCH INSTITUTE, priority 2015, dated 2019)
